Series [1] is described as follows: Aqueous solubility in PBS, pH 7.4. It is filed as physicochemical. As to conditions: pH 7.4 phosphate buffered saline, 24 hours, amorphous or crystalline material; for solubility at 24 h: phosphate buffered saline, pH 7.4, aqueous buffer, thermodynamic from solid, read-out: Aqu. Solubility. The method, then:
Aqueous solubility of the compounds was determined by suspending excess solid (typically 0.3-0.5 mg) in PBS, pH 7.4, at a concentration of 0.5 mg/mL. The suspension was vortexed for 10-30 seconds to wet the material and stirred at 600 rpm for 24 hours. For analysis by UPLC, 150 μL aliquot sample was transferred into a […] PVDF spin filter and centrifuged at 14,000 rpm for 5 minutes. 100 μL of the filtrate was diluted with 100 μL 1:1 Acetonitrile (ACN):H2O. The resultant samples were analyzed using UPLC and quantified against a standard curve of the compound of interest dissolved in 1:1 ACN:H2O. The retains of the solids were checked by XRPD and PLM to determine if the phase of the material was crystalline or amorphous.

The subject of series [2] is HIV-1 wild-type (R8) virus. As to the kind of experiment: Viral KINetics in Green cells (VIKING) assay, HIV-1 replication in MT4-GFP reporter cells. It counts as cell-based. As to conditions: MT4-GFP cells, HIV-1 wild-type (R8), read-out: Viking (10% NHS), IC50. The method, then: Antiviral potency of the compounds was determined based on their ability to block HIV-1 replication in a GFP reporter cell line; this assay is referred to as Viral KINetics in Green cells or VIKING assay. HIV-1 replication was monitored using MT4-gag-GFP clone D3 (hereafter designate MT4-GFP) cells, which are MT4 cells modified to harbor a GFP reporter gene, the expression of which is dependent on the HIV-1 proteins tat and rev. (MT4 is a human T-cell line that is particularly sensitive to HIV-1 replication.) HIV-1 infection of MT4-GFP cells results in GFP expression approximately 24 h post-infection. MT4-GFP cells were maintained at 37° C./5% CO2/90% relative humidity in RPMI 1640 supplemented with 10% fetal bovine serum, 100 U/mL penicillin/streptomycin, and […] G418 to maintain the reporter gene. For infections, MT4-GFP cells were placed in the same medium lacking G418 and infected overnight with HIV-1 wild-type (R8) virus at an approximate multiplicity of infection of 0.01 in the same incubation conditions. Cells were then washed and resuspended in RPMI 1640 containing 10% normal human serum at 2×10^5 cells/mL. Compound plates were prepared by dispensing compounds dissolved in DMSO into wells of 384-well poly D lysine-coated plates (0.2 μl/well) using an ECHO acoustic dispenser. Each compound was tested in a 10-point serial 3-fold dilution (typical final concentrations: 4 μM-0.2 nM). Controls included no inhibitor (DMSO only) and a combination of three antiviral agents as a positive control (efavirenz, indinavir, and an integrase strand transfer inhibitor at final concentrations of 4 μM each). Infected cells were added (50 μL/well) to compound plates and were maintained at 37° C./5% CO2/90% relative humidity. Infected cells were quantified at two time points, approximately 48 h and 72 h post-infection, by counting the number of green cells in each well using an Acumen eX3 scanner. The increase in the number of green cells over ˜24 h period gives the reproductive ratio, R, which is calculated by dividing the number of green cells at 72 h over those at 48 h post-infection. The percent inhibition caused by a test compound is calculated using the following formula: […]
The dose-response curves of each test compound were plotted as % inhibition versus the compound concentration. IC50 values were determined by non-linear 4-parameter fitting of the dose-response curves.

Setting [3] is: Human immunodeficiency virus 1, 10% normal human serum.

In brackets after ≈: the same amount, converted by molar mass. Read-outs that look alike come from different tables or passages of the source.

What is called IC50 is the midpoint of a concentration-inhibition curve. Take `C#C[C@]1(COP(=O)(N[C@@H](C)C(=O)OC(C)C)Oc2ccc3ccccc3c2)O[C@@H](n2ccc3c(N)nc(Cl)nc32)C[C@@H]1O` (stereo partly shown) [Example 76]: in series [1], the “Aqu. Solubility” value turned out to be 23 µg/mL. In addition, the half-inhibitory concentration (IC50) in series [2] (10% normal human serum) was 31 nM.
One may read the solubility as how much of the substance goes into solution per volume. With `C#C[C@]1(CO)O[C@@H](n2ccc3c(N)nc(Cl)nc32)C[C@@H]1OC(=O)OCCCCC` [Example 13, (2R,3S,5R)-5-(4-amino-2-chloro-7H-pyrrolo[2,3-d]pyrimidin-7-yl)-2-ethynyl-2-(hydroxymethyl)tetrahydrofuran-3-yl pentyl carbonate], the solubility at 24 h in series [1] was 1.9 µg/mL (≈ 4.49 µM). The concentration for half-maximal inhibition (IC50) in series [2] (setting [3]) is 2.2 nM.
Take `C#C[C@]1(COC(=O)OCCCCCCCCC)O[C@@H](n2ccc3c(N)nc(Cl)nc32)C[C@@H]1O` [Example 126]: in series [1], the solubility at 24 h was 21 µg/mL (≈ 43.8 µM). Moreover, the 50% inhibitory concentration (IC50) in series [2] (setting [3]) came out at 2.6 nM.
On to `C#C[C@]1(CO)O[C@@H](n2ccc3c(N)nc(Cl)nc32)C[C@@H]1OC(=O)c1ccccn1` [Example 28, (2R,3S,5R)-5-(4-amino-2-chloro-7H-pyrrolo[2,3-d]pyrimidin-7-yl)-2-ethynyl-2-(hydroxymethyl)tetrahydrofuran-3-yl picolinate], for which, in series [1], the solubility at 24 h is 68 µg/mL (≈ 164 µM). The half-inhibitory concentration (IC50) in series [2] (setting [3]) stood at 4.3 nM.
As for `C#C[C@]1(COC(=O)Cc2ccc(F)cc2)O[C@@H](n2ccc3c(N)nc(Cl)nc32)C[C@@H]1OC(=O)Cc1ccc(F)cc1` [Example 29, (2R,3S,5R)-5-(4-amino-2-chloro-7H-pyrrolo[2,3-d]pyrimidin-7-yl)-2-ethynyl-2-((2-(4-fluorophenyl)acetoxy)methyl)tetrahydrofuran-3-yl 2-(4-fluorophenyl)acetate], the solubility at 24 h in series [1] was less than 1 µg/mL. For the same compound, the half-maximal inhibitory concentration (IC50) in series [2] (setting [3]) was 5.8 nM.
As for `C#C[C@]1(COC(=O)OCc2ccccc2)O[C@@H](n2ccc3c(N)nc(Cl)nc32)C[C@@H]1O` [Example 122], the “Aqu. Solubility” value in series [1] was determined as 107 µg/mL. In series [2] (10% normal human serum), the IC50 amounted to 4 nM.
In the case of `C#C[C@]1(CO)O[C@@H](n2ccc3c(N)nc(Cl)nc32)C[C@@H]1OC(C)=O` [Example 180], the solubility at 24 h in series [1] amounted to 257 µg/mL (≈ 733 µM). For the same compound, in series [2] (setting [3]), the half-inhibitory concentration (IC50) is 27 nM.
Take `C#C[C@]1(CO)O[C@@H](n2ccc3c(N)nc(Cl)nc32)C[C@@H]1OC(=O)OCC1CCCCC1` [Example 154]: the solubility at 24 h in series [1] is less than 1 µg/mL. Besides, the IC50 in series [2] (setting [3]) was 3.5 nM.
On to `C#C[C@]1(CO)O[C@@H](n2ccc3c(N)nc(Cl)nc32)C[C@@H]1OC(=O)CC1CCCCC1` [Example 177], for which, in series [1], the solubility at 24 h was less than 1 µg/mL. In series [2] (setting [3]), the IC50 was 8.5 nM.
Consider `C#C[C@]1(COC(=O)Cc2ccc(Br)cc2)O[C@@H](n2ccc3c(N)nc(Cl)nc32)C[C@@H]1O` [Example 73, ((2R,3S,5R)-5-(4-amino-2-chloro-7H-pyrrolo[2,3-d]pyrimidin-7-yl)-2-ethynyl-3-hydroxytetrahydrofuran-2-yl)methyl 2-(4-bromophenyl)acetate], for which the solubility at 24 h in series [1] worked out at 24 µg/mL (≈ 47.5 µM). In addition, in series [2] (setting [3]), the IC50 turned out to be 3.2 nM.
As for `C#C[C@]1(COC(=O)OCc2ccccc2)O[C@@H](n2ccc3c(N)nc(Cl)nc32)C[C@@H]1O` [Example 114, ((2R,3S,5R)-5-(4-amino-2-chloro-7H-pyrrolo[2,3-d]pyrimidin-7-yl)-2-ethynyl-3-hydroxytetrahydrofuran-2-yl)methyl benzyl carbonate], in series [1], the solubility at 24 h was 66 µg/mL (≈ 149 µM). Besides, the IC50 in series [2] (setting [3]) was found to be 3.9 nM.
Regarding `C#C[C@]1(COC(=O)OCc2ccccc2)O[C@@H](n2ccc3c(N)nc(Cl)nc32)C[C@@H]1OC(=O)OCCCCCC` [Example 68, ((2R,3S,5R)-5-(4-amino-2-chloro-7H-pyrrolo[2,3-d]pyrimidin-7-yl)-2-ethynyl-3-(((hexyloxy)carbonyl)oxy)tetrahydrofuran-2-yl)methylbenzyl carbonate], the solubility at 24 h in series [1] is less than 1 µg/mL. For the same compound, the IC50 in series [2] (setting [3]) was determined as 6.5 nM.
`C#C[C@]1(COC(=O)OCc2oc(=O)oc2C)O[C@@H](n2ccc3c(N)nc(Cl)nc32)C[C@@H]1OC(=O)OCc1oc(=O)oc1C` [Example 53, ((2R,3S,5R)-5-(4-amino-2-chloro-7H-pyrrolo[2,3-d]pyrimidin-7-yl)-2-ethynyl-3-((((5-methyl-2-oxo-1,3-dioxol-4-yl)methoxy)carbonyl)oxy)tetrahydrofuran-2-yl)methyl ((5-methyl-2-oxo-1,3-dioxol-4-yl)methyl) carbonate]: in series [1], the solubility at 24 h is less than 1 µg/mL. Moreover, the half-inhibitory concentration (IC50) in series [2] (setting [3]) is 1.7 nM.
As for `C#C[C@]1(CO)O[C@@H](n2ccc3c(N)nc(Cl)nc32)C[C@@H]1OC(=O)CCCCCCCC` [Example 55, (2R,3S,5R)-5-(4-amino-2-chloro-7H-pyrrolo[2,3-d]pyrimidin-7-yl)-2-ethynyl-2-(hydroxymethyl)tetrahydrofuran-3-yl nonanoate], the solubility at 24 h in series [1] was less than 1 µg/mL. The IC50 in series [2] (setting [3]) is 2.2 nM.
As for `C#C[C@]1(CO)O[C@@H](n2ccc3c(N)nc(Cl)nc32)C[C@@H]1OC(=O)OCC(CC)CC` [Example 78], in series [1], the solubility at 24 h was determined as 2 µg/mL (≈ 4.58 µM). For the same compound, the half-inhibitory concentration (IC50) in series [2] (setting [3]) turned out to be 6.7 nM.
For the compound `C#C[C@]1(CO)O[C@@H](n2ccc3c(NC(=O)Cc4ccccc4)nc(Cl)nc32)C[C@@H]1O` [Example 199], the solubility at 24 h in series [1] was 51 µg/mL (≈ 119 µM). Besides, the IC50 in series [2] (setting [3]) was found to be 230 nM.
As for `C#C[C@]1(COC(=O)CCCCCCCCC)O[C@@H](n2ccc3c(N)nc(Cl)nc32)C[C@@H]1OC(C)=O` [Example 48, ((2R,3S,5R)-3-acetoxy-5-(4-amino-2-chloro-7H-pyrrolo[2,3-d]pyrimidin-7-yl)-2-ethynyltetrahydrofuran-2-yl)methyl decanoate], the solubility at 24 h in series [1] was less than 1 µg/mL. Moreover, the IC50 in series [2] (setting [3]) amounted to 35 nM.
In the case of `C#C[C@]1(COC(=O)CCCC[C@@H]2SC[C@@H]3NC(=O)N[C@@H]32)O[C@@H](n2ccc3c(N)nc(Cl)nc32)C[C@@H]1OC(=O)CCCC[C@@H]1SC[C@@H]2NC(=O)N[C@@H]21` [Example 74], the solubility at 24 h in series [1] was less than 1 µg/mL. Also, in series [2] (setting [3]), the half-maximal inhibitory concentration (IC50) was 69 nM.
With `C#C[C@]1(COC(=O)OCCCCCCC)O[C@@H](n2ccc3c(N)nc(Cl)nc32)C[C@@H]1O` [Example 121], in series [1], the solubility at 24 h was determined as 7 µg/mL (≈ 15.5 µM). Besides, in series [2] (setting [3]), the IC50 was 3.1 nM.
Regarding `C#C[C@]1(CO)O[C@@H](n2ccc3c(N)nc(Cl)nc32)C[C@@H]1OC(=O)OCc1oc(=O)oc1C` [Example 56, (2R,3S,5R)-5-(4-amino-2-chloro-7H-pyrrolo[2,3-d]pyrimidin-7-yl)-2-ethynyl-2-(hydroxymethyl)tetrahydrofuran-3-yl((5-methyl-2-oxo-1,3-dioxol-4-yl)methyl) carbonate], the solubility at 24 h in series [1] turned out to be 122 µg/mL (≈ 262 µM). The IC50 in series [2] (setting [3]) was determined as 2.3 nM.
Take `C#C[C@]1(COC(=O)CCCCC)O[C@@H](n2ccc3c(N)nc(Cl)nc32)C[C@@H]1O` [Example 116]: the solubility at 24 h in series [1] amounted to 39 µg/mL (≈ 95.9 µM). The IC50 in series [2] (setting [3]) worked out at 4.2 nM.
For `C#C[C@]1(COC(=O)CCCCCC)O[C@@H](n2ccc3c(N)nc(Cl)nc32)C[C@@H]1O` [Example 119], in that order: 57 µg/mL (≈ 135 µM) and 3.5 nM.
Regarding `C#C[C@]1(COC(=O)CCCc2ccccc2)O[C@@H](n2ccc3c(N)nc(Cl)nc32)C[C@@H]1O` [Example 129], the solubility at 24 h in series [1] was 37 µg/mL (≈ 81.3 µM). For the same compound, the IC50 in series [2] (setting [3]) came out at 3.1 nM.
Turning to `C#C[C@]1(COC(=O)OCC23CC4CC(CC(C4)C2)C3)O[C@@H](n2ccc3c(N)nc(Cl)nc32)C[C@@H]1O` [Example 115], the solubility at 24 h in series [1] is less than 1 µg/mL. The concentration for half-maximal inhibition (IC50) in series [2] (setting [3]) stood at 5.7 nM.
Turning to `C#C[C@]1(CO)O[C@@H](n2ccc3c(NC(=O)CCCCCCCCCCCCC)nc(Cl)nc32)C[C@@H]1O` [Example 70, N-(2-chloro-7-((2R,4S,5R)-5-ethynyl-4-hydroxy-5-(hydroxymethyl)tetrahydrofuran-2-yl)-7H-pyrrolo[2,3-d]pyrimidin-4-yl)tetradecanamide], in series [2] (setting [3]), the half-inhibitory concentration (IC50) is 58 nM.

Values taken from patent US20240287124A1, “PRODRUGS OF 4'-SUBSTITUTED NUCLEOSIDE REVERSE TRANSCRIPTASE INHIBITORS” (Merck Sharp & Dohme LLC, priority 2023, published 2024).
